The record followed here is patent US20230147257A1 (DONG-A ST CO., LTD., priority 2020, published 2023).

pIC50: −log10 of the molar value.

The assay addresses T1, AhR (Homo sapiens, UniProt P35869).
T1 construct: host or cells: HepG2
T1 sequence (P35869 11-848): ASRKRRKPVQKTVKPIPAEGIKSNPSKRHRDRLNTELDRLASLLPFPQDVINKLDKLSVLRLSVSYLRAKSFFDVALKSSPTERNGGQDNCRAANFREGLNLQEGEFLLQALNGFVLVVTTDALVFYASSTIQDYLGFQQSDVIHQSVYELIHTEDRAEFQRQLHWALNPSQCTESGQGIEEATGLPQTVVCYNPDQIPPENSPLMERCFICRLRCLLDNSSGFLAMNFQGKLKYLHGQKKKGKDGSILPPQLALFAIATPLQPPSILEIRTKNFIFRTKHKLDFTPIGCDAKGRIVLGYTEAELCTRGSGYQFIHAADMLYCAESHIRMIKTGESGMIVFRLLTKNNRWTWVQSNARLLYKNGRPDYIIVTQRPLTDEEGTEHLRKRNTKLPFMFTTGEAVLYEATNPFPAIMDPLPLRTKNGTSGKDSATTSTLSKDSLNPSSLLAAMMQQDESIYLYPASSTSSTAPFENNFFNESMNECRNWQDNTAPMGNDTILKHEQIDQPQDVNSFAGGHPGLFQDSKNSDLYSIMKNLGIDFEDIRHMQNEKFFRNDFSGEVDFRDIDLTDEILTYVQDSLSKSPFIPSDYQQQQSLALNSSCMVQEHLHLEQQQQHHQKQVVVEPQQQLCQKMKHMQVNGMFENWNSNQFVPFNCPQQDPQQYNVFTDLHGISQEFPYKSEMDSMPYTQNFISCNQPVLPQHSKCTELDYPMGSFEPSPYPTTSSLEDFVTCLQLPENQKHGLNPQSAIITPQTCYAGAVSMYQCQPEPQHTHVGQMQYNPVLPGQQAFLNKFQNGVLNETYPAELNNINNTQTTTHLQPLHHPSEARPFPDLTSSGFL
In words: In vitro assay 1: XRE-luciferase reporter assay, antagonism in human cell line (HepG2). Format: cell-based. As to conditions: HepG2 XRE-luciferase, cells treated with kynurenine 200 μM (no *), 6 hours; read-out: Assay 1: AhR-Luc Human Antagonism (IC50). From the text:
In Vitro XRE-Luciferase Reporter Assay (In Vitro Assay 1, 2, 3)
AhR activation leads the induction of target gene expression such as CYP1A1 and CYP1B1 by AhR binding to AhR-responsive DNA elements also known as xenobiotics responsive elements (XRE). The assay for measuring AhR activity herein is the luciferase assay using cell lines transfected with luciferase reporter plasmid containing XREs at the upstream of the reporter gene. Cells transfected with XRE-luciferase reporter (XRE-Luc) plasmid drive luciferase activity reflecting activation and inhibition of AhR in the cells. In addition to transfection with XRE-reporter vector, cells were co-transfected with Nano-luciferase reporter gene construct (Nano-Luc) containing constitutively active promoter as internal control. Kynurenine (an endogenous AhR agonist) was used to stimulate cells to test antagonistic properties of the compounds. The half-maximal inhibitory concentration (IC50) or half-maximal effective concentration (EC50) value was calculated using nonlinear regression (four parameters) with Prism8.0 software (GraphPad).
In Vitro Assay 1: Antagonism in Human Cell Line
HepG2 (human hepatoma cell line) cell line with a XRE-luciferase reporter either transiently or stably (Invivogen) were plated in complete medium and incubated at 37° C. in a CO2 incubator. After 24 hours, cells were treated with kynurenine (50* or 200 μM) alone (negative control) or with test compounds for 6 hours. Luciferase activity was measured with a commercial kit such as the Promega Luciferase kit or other reagents for measuring luciferase activity. Relative luciferase activity (Firefly/Nano-Luc) was used to calculate IC50 values. The relative luciferase activity was further normalized with kynurenine alone group as the maximum control and the vehicle group as the minimum control. (IC50 values are grouped as A, B, C and D, whereby A: IC50<0.01 μM; B: 0.01<IC50<0.1 μM; C: 0.1<IC50<1.0 μM; D: IC50>1.0 μM)
On to `Cn1cc(-c2nc(-c3ccc(C(F)(F)F)cc3)cc3c(=O)n(-c4cccc(O)c4)cnc23)cn1` [Example 27, 3-(3-hydroxyphenyl)-8-(1-methyl-1H-pyrazol-4-yl)-6-(4-(trifluoromethyl)phenyl)pyrido[3,4-d]pyrimidin-4(3H)-one], for which the pIC50 is greater than 8.00. Take `Cn1cc(-c2nc(-c3ccc(Cl)cc3)cc3c(=O)n(C4CCCC(O)C4)cnc23)cn1` (stereo not drawn) [Example 64, 6-(4-chlorophenyl)-3-(3-hydroxycyclohexyl)-8-(1-methyl-1H-pyrazol-4-yl)pyrido[3,4-d]pyrimidin-4(3H)-one]: the pIC50 is 7.00 to 8.00. In the case of `CC(=O)OC(C)(C)Cn1cnc2c(-c3cccnc3)nc(-c3ccc(C(F)(F)F)cc3)cc2c1=O` [Example 37, 2-methyl-1-(4-oxo-8-(pyridin-3-yl)-6-(4-(trifluoromethyl)phenyl)pyrido[3,4-d]pyrimidin-3(4H)-yl)propan-2-yl acetate] it was greater than 8.00; in that of `O=c1c2cc(-c3ccc(C(F)(F)F)cc3)nc(-c3cccnc3)c2ncn1[C@H]1CCCC[C@H]1O` [Example 15, 3-((1S,2R)-2-hydroxycyclohexyl)-8-(pyridin-3-yl)-6-(4-(trifluoromethyl)phenyl)pyrido[3,4-d]pyrimidin-4(3H)-one], less than 6.00.

With `O=c1c2cc(-c3ccc(Cl)cc3)nc(-c3cccnc3)c2ncn1CC(O)C(F)(F)F` (stereo not drawn) [Example 24, 6-(4-chlorophenyl)-8-(pyridin-3-yl)-3-(3,3,3-trifluoro-2-hydroxypropyl)pyrido[3,4-d]pyrimidin-4(3H)-one], the pIC50 is greater than 8.00. With `Cn1cc(-c2nc(-c3ccc(C(F)(F)F)cc3)cc3c(=O)n([C@@H]4CC[C@H](O)C4)cnc23)cn1` [Example 31, 3-((1R,3S)-3-hydroxycyclopentyl)-8-(1-methyl-1H-pyrazol-4-yl)-6-(4-(trifluoromethyl)phenyl)pyrido[3,4-d]pyrimidin-4(3H)-one], the pIC50 is greater than 8.00. Take `Cn1cc(-c2nc(-c3ccc(Cl)cc3)cc3c(=O)n(CC(O)C(F)(F)F)cnc23)cn1` (stereo not drawn) [Example 23, 6-(4-chlorophenyl)-8-(1-methyl-1H-pyrazol-4-yl)-3-(3,3,3-trifluoro-2-hydroxypropyl)pyrido[3,4-d]pyrimidin-4(3H)-one]: the pIC50 is greater than 8.00. Take `CC(=O)NCC(C)n1cnc2c(-c3cccnc3)nc(-c3ccc(N4CCOCC4)cc3)cc2c1=O` (stereo not drawn) [Example 92, N-(2-(6-(4-morpholinophenyl)-4-oxo-8-(pyridin-3-yl)pyrido[3,4-d]pyrimidin-3(4H)-yl)propyl)acetamide]: the pIC50 was 7.00 to 8.00. In the case of `Cn1cc(-c2nc(-c3ccc(Cl)cc3)cc3c(=O)n(-c4cccc(O)c4)cnc23)cn1` [Example 26, 6-(4-chlorophenyl)-3-(3-hydroxyphenyl)-8-(1-methyl-1H-pyrazol-4-yl)pyrido[3,4-d]pyrimidin-4(3H)-one] it was 7.00 to 8.00; in that of `Cn1cc(-c2nc(-c3ccc(Cl)cc3)cc3c(=O)n([C@H]4CCCC[C@H]4O)cnc23)cn1` [Example 20, 6-(4-chlorophenyl)-3-((1S,2R)-2-hydroxycyclohexyl)-8-(1-methyl-1H-pyrazol-4-yl)pyrido[3,4-d]pyrimidin-4(3H)-one], less than 6.00. In the case of `O=c1c2cc(-c3ccc(C(F)(F)F)cc3)nc(-c3cccnc3)c2ncn1C1CCNCC1` [Example 93, 3-(piperidin-4-yl)-8-(pyridin-3-yl)-6-(4-(trifluoromethyl)phenyl)pyrido[3,4-d]pyrimidin-4(3H)-one] it was greater than 8.00; in that of `O=c1c2cc(-c3ccc(C(F)(F)F)cc3)nc(-c3cccnc3)c2ncn1CC(O)C(F)(F)F` (stereo not drawn) [Example 25, 8-(pyridin-3-yl)-3-(3,3,3-trifluoro-2-hydroxypropyl)-6-(4-(trifluoromethyl)phenyl)pyrido[3,4-d]pyrimidin-4(3H)-one], less than 6.00.
